Results reported in patent US20230072421A1, “TARGETED RADIOPHARMACEUTICALS FOR THE DIAGNOSIS AND TREATMENT OF PROSTATE CANCER” (Bayer AS, priority 2019, published 2023).

How the values were obtained:
[1] = tested on: VCaP cells; experiment: Cell proliferation assay (CellTiter-Glo, 5-day exposure), VCaP; type: cell-based; conditions: 4000 cells/well, Th-227 labelled at 375 kBq/nmol, mean of 1 to 6 experiments
Protocol: (§1) Inhibition of cell proliferation of Thorium-227 labeled PMSA SMOL ligands was tested different prostate cancer cell lines, namely 22Rv1, VCaP, C4-2 (all from ATCC, Manassas, Va., USA) and LNCaP (DMSZ, Braunschweig). Cells were seeded using the following conditions in 384 well plates (Corning) in 30 μl of growth media at 4000 cells/well for VCaP cells and 1000 cells/well for 22Rv1, C4-2 and LNCaP cells.
(§2) Cells were cultivated an incubator at 37° C. and 5% C02 over night. […] In sister plates cell viability at treatment start (d=0) was determined using CellTiter-Glo® assay (CTG, Promega, Madison, Wis., USA), by adding 30 μl per well CTG solution, incubation for 10 min and reading of Luminescence in a PheraStarFSX instrument (BMG Labtech). After a 5-day exposure in the presenced of test compounds, cell viability of treated or untreated control cells was determined again using CellTiter-Glo® assay (Promega, Madison, Wis., USA). […] The DRC software is a Biobook Spreadsheet that was developed by Bayer AG and Bayer Business Services on the IDBS E-Workbook Suite platform (IDBS: ID Business Solutions Ltd., Guildford, UK).

[2] = tested on: C4-2 cells; experiment: Cell proliferation assay (CellTiter-Glo, 5-day exposure), C4-2; type: cell-based; conditions: C4-2, 1000 cells/well, Th-227 labelled at 375 kBq/nmol, mean of 1 to 6 experiments
Protocol: as §1, §2

[3] = tested on: 22Rv1 cells; experiment: Cell proliferation assay (CellTiter-Glo, 5-day exposure), 22Rv1; type: cell-based; conditions: 22Rv1, 1000 cells/well, Th-227 labelled at 375 kBq/nmol, mean of 1 to 6 experiments
Protocol: as §1, §2

[4] = target: T1, PSMA-expressing LNCaP cells (Homo sapiens, UniProt Q04609); experiment: Binding competition assay against 3H-PSMA-617 on LNCaP cells; conditions: LNCaP cells, 10 nM 3H-PSMA-617, 2 h at 37° C., triplicates; for remaining activity at 0.01 µM: competing non-radiolabeled compound 10 nM; for remaining activity at 0.1 µM: competing non-radiolabeled compound 100 nM
T1 construct: PSMA-expressing LNCaP cells; endogenous in cells; host or cells: LNCaP
T1 sequence (Q04609 whole entry): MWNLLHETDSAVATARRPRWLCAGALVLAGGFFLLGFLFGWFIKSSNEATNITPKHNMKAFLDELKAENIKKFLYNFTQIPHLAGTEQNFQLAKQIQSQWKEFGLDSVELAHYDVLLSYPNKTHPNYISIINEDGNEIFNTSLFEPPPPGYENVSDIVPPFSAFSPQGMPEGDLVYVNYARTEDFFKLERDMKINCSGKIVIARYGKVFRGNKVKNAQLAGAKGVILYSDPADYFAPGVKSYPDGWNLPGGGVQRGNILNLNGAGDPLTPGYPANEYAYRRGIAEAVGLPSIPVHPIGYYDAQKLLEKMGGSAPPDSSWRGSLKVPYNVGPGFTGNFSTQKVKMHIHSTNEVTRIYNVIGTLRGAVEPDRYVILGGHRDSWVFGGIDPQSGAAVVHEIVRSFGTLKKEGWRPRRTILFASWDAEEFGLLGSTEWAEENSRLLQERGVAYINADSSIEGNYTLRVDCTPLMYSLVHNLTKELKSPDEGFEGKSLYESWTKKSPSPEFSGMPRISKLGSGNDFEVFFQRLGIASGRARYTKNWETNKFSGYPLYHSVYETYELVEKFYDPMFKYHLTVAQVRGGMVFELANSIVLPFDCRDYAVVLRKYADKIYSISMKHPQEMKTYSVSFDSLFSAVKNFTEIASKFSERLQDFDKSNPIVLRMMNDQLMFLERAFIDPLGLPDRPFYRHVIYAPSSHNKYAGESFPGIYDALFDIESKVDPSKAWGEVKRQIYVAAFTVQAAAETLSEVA
In short: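 Compounds added to LNCaP cells in growth medium, 2 h at 37 °C, 5% CO2. After two ice-cold PBS washes, cells lysed in 0.3 M NaOH and bound radioactivity measured by liquid scintillation counting.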

Molecule | Proliferation assay on cancer cell lines by TTCs Default Pivot #3 IC50 [kBq/mL] VCap 4000cells 375kBq/nmol (mean) [1] [kBq/mL] | Proliferation assay on cancer cell lines by TTCs Default Pivot #3 IC50 [kBq/mL] C4-2 1000cells 375kBq/nmol (mean) [2] [kBq/mL] | Proliferation assay on cancer cell lines by TTCs Default Pivot #3 IC50 [kBq/mL] 22Rv1 1000cells 375kBq/nmol (mean) [3] [kBq/mL] | remaining activity at 0.01 µM [4] [%] | remaining activity at 0.1 µM [4] [%]
CNc1cc(CC(NC(=O)C2CCC(CNC(=O)Cn3c(C)cc(C(=O)NCCN(CCCN(CCNC(=O)c4cc(C)n(CC(=O)O)c(=O)c4[O-])CCNC(=O)c4cc(C)n(CC(=O)NCC5CCC(C(=O)NC(Cc6cc(NC)c7ccccc7c6)C(=O)NCCCCC(NC(=O)NC(CCC(=O)O)C(=O)O)C(=O)O)CC5)c(=O)c4[O-])CCNC(=O)c4cc(C)n(CC(=O)O)c(=O)c4[O-])c([O-])c3=O)CC2)C(=O)NCCCCC(NC(=O)NC(CCC(=O)O)C(=O)O)C(=O)O)cc2ccccc12.[227Th+4] (stereo not shown) [37-C dimer-227Th] | 1.53 | 0.48 | 1.06 |  | 
Cc1cc(C(=O)NCCN(CCCN(CCNC(=O)c2cc(C)n(CC(=O)O)c(=O)c2[O-])CCNC(=O)c2cc(C)n(CC(=O)NCC3CCC(C(=O)NC(Cc4cnc5ccccc5c4)C(=O)NCCCCC(NC(=O)NC(CCC(=O)O)C(=O)O)C(=O)O)CC3)c(=O)c2[O-])CCNC(=O)c2cc(C)n(CC(=O)O)c(=O)c2[O-])c([O-])c(=O)n1CC(=O)O.[227Th+4] (stereo not shown) [Example 22-C monomer-227Th] | 2.01 | 0.43 | 0.72 |  | 
[^227Th]Thorium-{N^6-[3-(quinolin-2-yl)-N-{(1r,4S)-4-[(2-{4,7,10-tris[(carboxy-kappaO)methyl]-1,4,7,10-tetraazacyclododecan-1-yl-kappa^4N^1,N^4,N^7,N^10}acetamido)methyl]cyclohexane-1-carbonyl}-L-alanyl]-N^2-{[(1S)-1,3-dicarboxypropyl]carbamoyl}-L-lysinate} [Example 17-B-227Th] | 0.73 | 0.15 | 0.8 |  | 
O=C([O-])CN1CCN(CC(=O)[O-])CCN(CC(=O)Nc2ccc(-c3ccn(CC(=O)N[C@@H](Cc4ccc5ccccc5c4)C(=O)NCCCC[C@H](NC(=O)N[C@@H](CCC(=O)O)C(=O)O)C(=O)O)n3)cc2)CCN(CC(=O)[O-])CC1.[227Th+4] [Example 28-B-227Th, [^227Th]Thorium (4S,11S,15S)-4-[(naphthalen-2-yl)methyl]-2,5,13-trioxo-1-{3-[4-(2-{4,7,10-tris[(carboxy-kappaO)methyl]-1,4,7,10-tetraazacyclododecan-1-yl-kappa^4N^1,N^4,N^7,N^10}acetamido)phenyl]-1H-pyrazol-1-yl}-3,6,12,14-tetraazaheptadecane-11,15,17-tricarboxylate] | 4.77 | 2.22 | 1.22 |  | 
O=C([O-])CN1CCN(CC(=O)[O-])CCN(CC(=O)NCc2ccc(C(=O)N[C@@H](Cc3ccc4ccccc4c3)C(=O)NCCCC[C@H](NC(=O)N[C@@H](CCC(=O)O)C(=O)O)C(=O)O)nc2)CCN(CC(=O)[O-])CC1.[227Th+4] [Example 25-B-227Th, [^227Th]Thorium (3S,10S,14S)-3-[(naphthalen-2-yl)methyl]-1,4,12-trioxo-1-{5-[(2-{4,7,10-tris[(carboxy-kappaO)methyl]-1,4,7,10-tetraazacyclododecan-1-yl-kappa^4N^1,N^4,N^7,N^10}acetamido)methyl]pyridin-2-yl}-2,5,11,13-tetraazahexadecane-10,14,16-tricarboxylate] | 1.51 | 0.1 | 0.73 |  | 
Cc1cc(C(=O)NCCN(CCCN(CCNC(=O)c2cc(C)n(CC(=O)NCC3CCC(C(=O)NC(Cc4ccc5ccccc5c4)C(=O)NCCCCC(NC(=O)NC(CCC(=O)O)C(=O)O)C(=O)O)CC3)c(=O)c2[O-])CCNC(=O)c2cc(C)n(CC(=O)NCC3CCC(C(=O)NC(Cc4ccc5ccccc5c4)C(=O)NCCCCC(NC(=O)NC(CCC(=O)O)C(=O)O)C(=O)O)CC3)c(=O)c2[O-])CCNC(=O)c2cc(C)n(CC(=O)NCC3CCC(C(=O)NC(Cc4ccc5ccccc5c4)C(=O)NCCCCC(NC(=O)NC(CCC(=O)O)C(=O)O)C(=O)O)CC3)c(=O)c2[O-])c([O-])c(=O)n1CC(=O)O.[227Th+4] (stereo not shown) [1-C trimer-227Th] | 3.11 | 2.24 | 0.74 |  | 
O=C([O-])CN1CCN(CC(=O)[O-])CCN(CC(=O)Nc2ccc(CC(=O)N[C@@H](Cc3ccc4ccccc4c3)C(=O)NCCCC[C@H](NC(=O)N[C@@H](CCC(=O)O)C(=O)O)C(=O)O)cc2)CCN(CC(=O)[O-])CC1.[227Th+4] [Example 23-B-227Th, [^227Th]Thorium-(4S,11S,15S)-4-[(naphthalen-2-yl)methyl]-2,5,13-trioxo-1-[4-(2-{4,7,10-tris[(carboxy-kappaO)methyl]-1,4,7,10-tetraazacyclododecan-1-yl-kappa^4N^1,N^4,N^7,N^10}acetamido)phenyl]-3,6,12,14-tetraazaheptadecane-11,15,17-tricarboxylate] | 3 | 1.32 | 0.96 |  | 
O=C([O-])CN1CCN(CC(=O)[O-])CCN(CC(=O)NCc2cccc(C(=O)N[C@@H](Cc3ccc4ccccc4c3)C(=O)NCCCC[C@H](NC(=O)N[C@@H](CCC(=O)O)C(=O)O)C(=O)O)c2)CCN(CC(=O)[O-])CC1.[227Th+4] [Example 27-B-227Th, [^227Th]Thorium (3S,10S,14S)-3-[(naphthalen-2-yl)methyl]-1,4,12-trioxo-1-{3-[(2-{4,7,10-tris[(carboxy-kappaO)methyl]-1,4,7,10-tetraazacyclododecan-1-yl-kappa^4N^1,N^4,N^7,N^10}acetamido)methyl]phenyl}-2,5,11,13-tetraazahexadecane-10,14,16-tricarboxylate] | 0.73 | 0.08 | 0.65 |  | 
COc1c(C[C@@H](NC(=O)[C@H]2CC[C@H](CNC(=O)CN3CCN(CC(=O)O)CCN(CC(=O)O)CCN(CC(=O)O)CC3)CC2)C(=O)NCCCC[C@H](NC(=O)N[C@@H](CCC(=O)O)C(=O)O)C(=O)O)ccc2ccccc12 [Example 33-B, (3R,10S,14S)-3-[(1-methoxynaphthalen-2-yl)methyl]-1,4,12-trioxo-1-[(1r,4S)-4-({2-[4,7,10-tris(carboxymethyl)-1,4,7,10-tetraazacyclododecan-1-yl]acetamido}methyl)cyclohexyl]-2,5,11,13-tetraazahexadecane-10,14,16-tricarboxylic acid] |  |  |  | 114 | 40
NC[C@H]1CC[C@H](C(=O)N[C@@H](Cc2ccc(-c3ccccc3)cc2)C(=O)NCCCC[C@H](NC(=O)N[C@@H](CCC(=O)O)C(=O)O)C(=O)O)CC1 [Example 11a-A, (3S,10S,14S)-1-[(1r,4S)-4-(aminomethyl)cyclohexyl]-3-[([1,1′-biphenyl]-4-yl)methyl]-1,4,12-trioxo-2,5,11,13-tetraazahexadecane-10,14,16-tricarboxylic acid] |  |  |  | 110 | 103
